{"source": "patent USRE43615E1", "about": "“Method for controlling the yeast-to-filamentous growth transition in fungi” (priority 2007, dated 2012)", "key": {"[1]": {"tested_on": "C. albicans SC3514 (wild type) yeast-to-hypha transition", "experiment": "Inhibition of yeast-to-hypha transition in optical microplates, monitored by microscopy", "type": "cell-based, Candida albicans", "excerpt": "(§1) A simple in vitro assay system was designed to detect inhibition of the yeast-to-filamentous growth transition in C. albicans. In this assay, C. albicans cells are first grown under conditions that maintain them in a yeast growth form. The yeast-form cells are then transferred to the wells of an optical microplate containing (i) a medium that induces either the yeast-to-hypha transition (in wild type cells) or the yeast-to-pseudohypha transition (in a conditional pseudohyphal mutant strain) and (ii) varying concentrations of BH3I-1 (typically 0, 10, 30, 50, 100 and 200 μM BH3I-1). The plates are incubated for up to six hours at 37° C. (to test for the hyphal transition) or up to 24 hours 30° C. (to test for the pseudohyphal transition). The transition to filamentous growth (or lack thereof) is monitored in the optical microplates directly with a Nikon TE200 inverted microscope.\n(§2) C. albicans SC3514 was used as the “wild type” strain to monitor the yeast-to-hypha transition. A “conditional pseudohyphal mutant” strain was used to monitor the yeast-to-pseudohypha transition. The conditional strain harbors deletions of both native GRR1 alleles plus an introduced wild type copy of GRR1 under the control of the regulatable MET3 promoter. Deletion of GRR1 was previously found to cause pseudohyphal growth.\n(§3) Standard yeast growth media were used for these experiments. To maintain wild type cells in the yeast-form, cells were grown in YPD medium (1% Yeast Extract, 2% Peptone and 2% Dextrose) at 30° C. To induce hyphal growth in the wild type strain, cells were transferred to Spider medium (1% Nutrient broth, 1% mannitol, […]) at 37° C. or to Lee's medium (0.5% (NH4)SO4, 0.02% MgSO4, 0.5% NaCl, 1.25% glucose, supplemented with alanine, leucine, lysine, ornithine, phenylalanine threonine and biotin) at 37° C. To maintain the conditional pseudohyphal mutant strain in the yeast-form, cells were grown in YNB medium (Yeast Nitrogen Base, ammonium sulfate, succinic acid supplemented with the appropriate amino acids) at 30° C. […]"}, "[2]": {"tested_on": "C. albicans conditional pseudohyphal mutant (grr1/grr1, MET3p-driven GRR1) yeast-to-pseudohypha transition", "experiment": "Inhibition of yeast-to-pseudohypha transition in optical microplates, monitored by microscopy", "type": "cell-based, Candida albicans", "excerpt": "as §1, §2, §3"}}}
{"smiles": "CC(C)C(C(=O)O)N1C(=O)C(=Cc2ccc(Br)cc2)SC1=S", "note": "(stereo not drawn) [BH3I-1, 5-(p-Bromobenzylidine)-α-isopropyl-4-oxo-2-thioxo-3-thiozolidineacetic acid]", "values": [{"measurement": "minimum inhibitory concentration (MIC) for the yeast-to-hypha transition", "setting": "[1]; wild type SC3514, both hyphal-inducing media (Spider medium, Lee's medium), 37° C.", "value": "50 to 100", "unit": "µM"}, {"measurement": "growth of treated cells in hyphal-inducing media", "setting": "[1]; wild type SC3514, hyphal-inducing media", "value": "continued to divide as yeast cells"}, {"measurement": "yeast-to-hypha transition of treated cells", "setting": "[1]; wild type SC3514 transferred from YPD medium to Spider medium or Lee's medium", "value": "failed to undergo the yeast-to-hypha transition"}, {"measurement": "yeast-to-pseudohypha transition of treated cells", "setting": "[2]; conditional pseudohyphal mutant transferred from YNB medium to YNB plus methionine/cysteine medium", "value": "failed to undergo the yeast-to-pseudohypha transition"}, {"measurement": "MIC for the yeast-to-pseudohypha transition", "setting": "[2]; conditional pseudohyphal mutant, YNB plus methionine/cysteine medium, 30° C.", "value": 100, "unit": "µM"}, {"measurement": "growth of treated cells in pseudohyphal-inducing medium", "setting": "[2]; conditional pseudohyphal mutant, pseudohyphal-inducing medium", "value": "continued to divide as yeast cells"}]}
